Experimental data published in patent publication US8158172B2, “Fermented food products containing probiotics strains, and method for preparing same” (Compagnie Gervais Danone, priority 2006, dated 2012).

How the values were obtained:
Assay type in all cases: cell-based
bifidobacteria (I-2494) = assay: Development of the population of bifidobacteria in the model preserved at 4° C., filtered or autoclaved stimulant (Example 4); settings: 50 mg/l; for population of bifidobacteria D 10: 10 days after placing in pots; for population of bifidobacteria D 10 / population of bifidobacteria D 24 / population of bifidobacteria D 29 / population of bifidobacteria D 0: preserved at 4° C.; for population of bifidobacteria D 24: 24 days after placing in pots; for population of bifidobacteria D 29: 29 days after placing in pots; for population of bifidobacteria D 0: placing in pots (packaging); for effect of the supply on the population of bifidobacteria: filtered or autoclaved, relative to control
Experimental: The impact of sterilization by filtration or thermization of the cysteine and methionine is assessed (final concentration used: 50 mg/l). The solutions are either filtered at 0.2 μm or autoclaved for 5 minutes at 121° C. then frozen in the form of beads in liquid nitrogen. Constitution of the model: Milex skimmed milk powder supplied by Arla food: 120 g […] Heat treatment: pasteurization for 30 minutes at 95° C. in a bubbling water bath Cysteine: supplier Sigma. The solution is prepared at 500 g/l, filtered on a 0.2 μm Nalgène filter unit or sterilized at 121° C. for 5 minutes by an autoclave controlled by temperature probe ([…] France S.A., reference KL 60/101). This solution is injected sterilely into the pasteurized model for a final concentration of 50 mg/l. […] The solution is prepared at 300 g/l; the filtration or sterilization treatment is identical to that carried out for the cysteine solution. This solution is injected sterilely into the pasteurized model for a final concentration of 50 mg/l. The seeding doses are referred to in Table 3 below. The seeding is 5.10^6 CFU/ml of Streptococcus thermophilus and 5.10^6 CFU/ml of Lactobacillus bulgaricus. The monitoring of the population of bifidobacteria in the model preserved at 4° C. as a function of the various conditions above is represented in FIG. 3 as well as in Table 4 below: The reference time D0 corresponds to placing in pots (packaging).

[1] = system: ferment comprising Streptococcus thermophilus (CNCM: I-1630), Lactobacillus delbrueckii ssp. bulgaricus (CNCM: I-1632, I-1519) and Bifidobacterium animalis ssp …; assay: Monitoring of the acidification of the milk product model by the ferment of Example 1; settings: vitamin C 0.5 g/l, cysteine 50 mg/l; for acidification curve compared with control / vitamin C curve: FIG. 1; for Ta = latency time / Tmax = time at Vmax / TpH 4.8 = time to arrive at pH 4.8 / TpH 5 = time to arrive at pH 5 / TpH 5.5 = time to arrive at pH 5.5 / Vmax = maximum rate / pH 0 = pH at start of fermentation / pHm = pH at the maximum acidification rate: milk model at 37° C.
Experimental: A ferment comprising Streptococcus thermophilus (CNCM: I-1630)+Lactobacillus delbreckii ssp. bulgaricus (CNCM: I-1632)+Lactobacillus delbrueckii ssp. bulgaricus (CNCM: I-1519)+Bifidobacterium animalis ssp lactis (CNCM: I-2494) is used.
The growth of bifidobacteria in milk is measured in the presence of a solution of vitamin C (0.5 g/l) completely reducing the oxygen in the medium, and a solution of cysteine (50 mg/l).
Constitution of the product model:
Milex skimmed milk powder supplied by Arla food: 120 g
Water: quantity sufficient for 1 kg
A heat treatment is carried out involving pasteurization for 30 minutes at 95° C. in a bubbling water bath.
The cysteine is supplied by Sigma. The solution is prepared at 500 g/l, filtered on a 0.2 μm Nalgène filter unit. This solution is used injected sterilely into the pasteurized model for a final concentration of 50 mg/l.
The vitamin C is supplied by Sigma. The solution is prepared at 100 g/l, filtered on a 0.2 μm Nalgène filter unit (cat. 156-4020, Nalge Europe Ltd, Belgium). This solution is used injected sterilely into the pasteurized model for a final concentration of 0.5 g/l.
The seeding is 5.10^6 CFU/ml of Streptococcus thermophilus and 5.10^6 CFU/ml of Lactobacillus bulgaricus.
The monitoring of the acidification of the model at 37° C. is represented in Table 2 below as well as in FIG. 1.

[2] = system: Bifidobacterium animalis ssp lactis (CNCM: I-2494); assay: Growth of bifidobacteria in milk, quantity at the end of the fermentation (Example 1); settings: milk model at 37° C.; vitamin C 0.5 g/l, cysteine 50 mg/l
Experimental: A ferment comprising Streptococcus thermophilus (CNCM: I-1630)+Lactobacillus delbreckii ssp. bulgaricus (CNCM: I-1632)+Lactobacillus delbrueckii ssp. bulgaricus (CNCM: I-1519)+Bifidobacterium animalis ssp lactis (CNCM: I-2494) is used. The growth of bifidobacteria in milk is measured in the presence of a solution of vitamin C (0.5 g/l) completely reducing the oxygen in the medium, and a solution of cysteine (50 mg/l). A heat treatment is carried out involving pasteurization for 30 minutes at 95° C. in a bubbling water bath. The cysteine is supplied by Sigma. The solution is prepared at 500 g/l, filtered on a 0.2 μm Nalgène filter unit. This solution is used injected sterilely into the pasteurized model for a final concentration of 50 mg/l. The vitamin C is supplied by Sigma. The solution is prepared at 100 g/l, filtered on a 0.2 μm Nalgène filter unit (cat. 156-4020, Nalge Europe Ltd, Belgium). This solution is used injected sterilely into the pasteurized model for a final concentration of 0.5 g/l. The seeding is 5.10^6 CFU/ml of Streptococcus thermophilus and 5.10^6 CFU/ml of Lactobacillus bulgaricus.

[3] = system: Bifidobacterium animalis ssp lactis (CNCM: I-2494); assay: Population of bifidobacteria in milk models (stirred yogurts) during preservation at 10° C. (Example 2)
Experimental: A ferment comprising Streptococcus thermophilus (CNCM: I-2272)+Streptococcus thermophilus (CNCM: I-2773)+Streptococcus thermophilus (CNCM: I-2130)+Lactobacillus delbrueckii ssp. bulgaricus (CNCM: I-1519)-+Bifidobacterium animalis ssp lactis (CNCM: I-2494) is used. “Milk models” are constituted by standard stirred yogurts comprising the ferment described above. The use of 0.2 μm-filtered cysteine was assessed in the “milk models” in proportions comprised from 5 mg/l to 50 mg/l (preferably from 5 to 20 mg/l). For the bifidobacteria counting method, reference may be made to M. Grand et al., Quantitative analysis and molecular identification of bifidobacteria strains in probiotic milk products, Eur. Food Res. Technol. 217:90-92 (2003).

Bifidobacterium = assay: Population of bifidobacteria during preservation at 10° C., cysteine incorporated before pasteurization (Example 5)
Experimental: This concentration was assessed on direct incorporation in the model and pasteurized composition (95° C., 30 minutes). The monitoring of the population of bifidobacteria in the product model during preservation at 10° C. is represented in FIG. 4.

[4] = system: ferment comprising Streptococcus thermophilus (CNCM: I-2272, I-2773, I-2130), Lactobacillus delbrueckii ssp. bulgaricus (CNCM: I-1519) and Bifidobacterium …; assay: Acidification kinetics of milk with the ferment of Example 2 (Example 3); settings: 15 mg/L cysteine versus control without cysteine
From the text: A ferment comprising Streptococcus thermophilus (CNCM: I-2272)+Streptococcus thermophilus (CNCM: I-2773)+Streptococcus thermophilus (CNCM: I-2130)+Lactobacillus delbrueckii ssp. bulgaricus (CNCM: I-1519)-+Bifidobacterium animalis ssp lactis (CNCM: I-2494) is used. The ferment described in Example 2 is used.

bifidobacteria = assay: Populations of bifidobacteria in products with increasing doses of cysteine (Example 7)
Experimental: Different products were prepared with increasing doses of cysteine (see the table below). The control was the standard dairy product containing the ferment.

SMILES: N[C@@H](CS)C(=O)O [Autoclaved cysteine, L-cysteine]
- population of bifidobacteria D 10 (bifidobacteria (I-2494)): 5.2.10^8 CFU/ml
- population of bifidobacteria D 24 (bifidobacteria (I-2494)): 2.8.10^8 CFU/ml
- population of bifidobacteria D 29 (bifidobacteria (I-2494)): 1.7.10^8 CFU/ml
- population of bifidobacteria D 0 (bifidobacteria (I-2494)): 3.1 · 10^8 CFU/ml

SMILES: CSCCC(N)C(=O)O [Autoclaved methionine, L-methionine ((S)-2-amino-4-methylthio-butyric acid)]
- population of bifidobacteria D 10 (bifidobacteria (I-2494)): 3.5 · 10^8 CFU/ml
- population of bifidobacteria D 24 (bifidobacteria (I-2494)): 3.5 · 10^8 CFU/ml
- population of bifidobacteria D 29 (bifidobacteria (I-2494)): 2.8 · 10^8 CFU/ml
- population of bifidobacteria D 0 (bifidobacteria (I-2494)): 3.4.10^8 CFU/ml

SMILES: O=C1O[C@H]([C@@H](O)CO)C(O)=C1O [Vitamin C, vitamin C, reference compound]
- acidification curve compared with control / vitamin C curve [1]: virtually indistinguishable from the control acidification curve
- Ta = latency time [1]: 86 min
- Tmax = time at Vmax [1]: 3.07 h
- TpH 4.8 = time to arrive at pH 4.8 [1]: 479 minutes
- TpH 5 = time to arrive at pH 5 [1]: 391 minutes
- TpH 5.5 = time to arrive at pH 5.5 [1]: 260 minutes
- Vmax = maximum rate [1]: −0.0079 pH units/minute
- pH 0 = pH at start of fermentation [1]: 6.5
- pHm = pH at the maximum acidification rate [1]: 5.96
- D 0 CFU/ml = quantity of bifidobacteria obtained at the end of the fermentation [2]: 1.02 · 10^8 CFU/ml

SMILES: N[C@@H](CS)C(=O)O [cysteine, L-cysteine]
- effect of the supply on the population of bifidobacteria (bifidobacteria (I-2494)): increased
- population of bifidobacteria D 10 (bifidobacteria (I-2494); listed as Filtered cysteine): 4.3 · 10^8 CFU/ml
- population of bifidobacteria D 24 (bifidobacteria (I-2494); listed as Filtered cysteine): 4.0 · 10^8 CFU/ml
- population of bifidobacteria D 0 (bifidobacteria (I-2494); listed as Filtered cysteine): 5.1.10^8 CFU/ml
- acidification curve compared with control / vitamin C curve [1]: differs from the acidification curve in the presence of vitamin C
- Ta = latency time [1]: 90 min
- Tmax = time at Vmax [1]: 3.47 h
- TpH 4.8 = time to arrive at pH 4.8 [1]: 417 minutes
- TpH 5 = time to arrive at pH 5 [1]: 354 minutes
- TpH 5.5 = time to arrive at pH 5.5 [1]: 248 minutes
- Vmax = maximum rate [1]: −0.01046 pH units/minute
- pH 0 = pH at start of fermentation [1]: 6.6
- pHm = pH at the maximum acidification rate [1]: 5.82
- Bifidobacterium I-2494 population after 28 days of preservation at 10° C. ([3]; 0.0015% i.e. 15 mg/l of filtered cysteine): 2.8.10^8 CFU/ml
- Bifidobacterium population ([3]; dose of 0.0015% cysteine): > 2.10^8 CFU/ml
- population of bifidobacteria after preservation for up to 28 days at 10° C. ([3]; highest concentration of L cysteine (range 5 mg/l to 50 mg/l)): remains stable
- population of bifidobacteria at D+24 h ([3]; highest concentration of L cysteine (range 5 mg/l to 50 mg/l), 0.2 μm-filtered): 3.10^8 CFU/ml
- population of bifidobacteria at D+24 h ([3]; lowest concentration of L cysteine (range 5 mg/l to 50 mg/l)): 1.10^8 CFU/ml
- D 0 CFU/ml = quantity of bifidobacteria obtained at the end of the fermentation [2]: 2.79 · 10^8 CFU/ml
- population of Bifidobacterium after 44 days of preservation at 10° C. (Bifidobacterium; 12 mg/l cysteine incorporated before pasteurization (95° C., 30 minutes)): above 1.4.10^8 CFU/ml
- population of Bifidobacterium at D1 (24 hours of storage) (Bifidobacterium; 12 mg/l cysteine incorporated before pasteurization (95° C., 30 minutes), 10° C.): 2.4.10^8 CFU/ml
- population of Bifidobacterium on addition of 0.2 μm filtered cysteine to the model (Bifidobacterium; filtered cysteine, not heat treated (comparison)): 3.10^8 CFU/ml
- effect on the overall acidification kinetics of milk [4]: absence of the effect
- Populations (CFU/mL) T0 (bifidobacteria; Test 1, cysteine 0.008%): 4.40E+06 CFU/mL
- Populations (CFU/mL) Tf 495 min (bifidobacteria; Test 1, cysteine 0.008%): 1.70E+08 CFU/mL
- Populations (CFU/mL) T0 (bifidobacteria; Test 2, cysteine 0.005%): 4.70E+06 CFU/mL
- Populations (CFU/mL) T pH 4.8 (bifidobacteria; Test 2, cysteine 0.005%): 1.90E+08 CFU/mL
- Populations (CFU/mL) Tf 495 min (bifidobacteria; Test 2, cysteine 0.005%): 2.40E+08 CFU/mL
- Populations (CFU/mL) T0 (bifidobacteria; Test 3, cysteine 0.002%): 3.30E+06 CFU/mL
- Populations (CFU/mL) T pH 4.8 (bifidobacteria; Test 3, cysteine 0.002%): 2.50E+08 CFU/mL
- Populations (CFU/mL) Tf 495 min (bifidobacteria; Test 3, cysteine 0.002%): 3.10E+08 CFU/mL
- Populations (CFU/mL) T0 (bifidobacteria; Test 5, cysteine 0.001%): 3.10E+06 CFU/mL
- Populations (CFU/mL) T pH 4.8 (bifidobacteria; Test 5, cysteine 0.001%): 1.50E+08 CFU/mL
- Populations (CFU/mL) Tf 495 min (bifidobacteria; Test 5, cysteine 0.001%): 2.40E+08 CFU/mL
- Populations (CFU/mL) T0 (bifidobacteria; Test 6, cysteine 0.0005%): 3.90E+06 CFU/mL
- Populations (CFU/mL) T pH 4.8 (bifidobacteria; Test 6, cysteine 0.0005%): 1.10E+08 CFU/mL
- Populations (CFU/mL) Tf 495 min (bifidobacteria; Test 6, cysteine 0.0005%): 1.20E+08 CFU/mL

SMILES: CSCCC(N)C(=O)O [methionine, L-methionine ((S)-2-amino-4-methylthio-butyric acid)]
- effect of the supply on the population of bifidobacteria (bifidobacteria (I-2494)): increased
- population of bifidobacteria D 10 (bifidobacteria (I-2494); listed as Filtered methionine): 6.2 · 10^8 CFU/ml
- population of bifidobacteria D 24 (bifidobacteria (I-2494); listed as Filtered methionine): 3.4 · 10^8 CFU/ml
- population of bifidobacteria D 29 (bifidobacteria (I-2494); listed as Filtered methionine): 2.3 · 10^8 CFU/ml
- population of bifidobacteria D 0 (bifidobacteria (I-2494); listed as Filtered methionine): 4.0.10^8 CFU/ml
